Like-named read-outs stand apart in the source and are kept apart here.
What was measured:
OVCAR8TR cells = test: Reversal of drug resistance, cytotoxicity (MTT) assay in OVCAR8TR; type: cell-based, human; settings: anti-cancer drug alone, no NSC23925, read-out: OVCAR8TR IC50
Method: FIGS. 1 (a-b) are graphs that depict the effects of NSC23925 on drug sensitivity in ovarian cancer cells; 1(a) depicts the effects of NSC23925 on sensitive (SKOV-3) and resistant (SKOV-3TR) cells; 1(b) depicts the effects of NSC23925 on sensitive (OVCAR8) and resistant (OVCAR8TR) cells. Cells were treated with the paclitaxel and NSC23925 in RPMI1640 complete media at the indicated concentrations. The relative sensitivity of each line to paclitaxel was determined by MTT assay, as described below in the Examples section, 6 days post treatment. A: Reversal of paclitaxel resistance by NSC23925 in SKOV-3TR cells. B: Reversal of paclitaxel resistance by NSC23925 in OVCAR8TR cells.
(§1) Drug cytotoxicity was assessed in vitro using the MTT assay. SKOV-3 and SKOV-3TR cells were used herein. Briefly, 2×10^3 cells per well were plated in 96-well plates in culture medium (RPMI 1640 supplemented with 10% fetal bovine serum and penicillin/streptomycin) containing increasing concentrations of drug. After 7 days of culture, 10 μl MTT (5 mg/ml in PBS, obtained from Sigma) were added to each well and the plates were incubated for 4 h. The resulting formazan product was dissolved with acid-isopropanol and the absorbance at a wavelength of 490 nm (A490) was read on a SPECTRAmax® Microplate Spectrophotometer (Molecular Devices, Sunnyvale, Calif.). The absorbance values were normalized by assigning the value of the control line in the medium without drug to 1.0 and the value of the no cell control to 0. Experiments were performed in triplicate.

SKOV-3TR cells = test: Reversal of drug resistance, cytotoxicity (MTT) assay in SKOV-3TR; type: cell-based; settings: anti-cancer drug alone, no NSC23925, read-out: SKOV-3TR IC50
Method: FIGS. 1 (a-b) are graphs that depict the effects of NSC23925 on drug sensitivity in ovarian cancer cells; 1(a) depicts the effects of NSC23925 on sensitive (SKOV-3) and resistant (SKOV-3TR) cells; 1(b) depicts the effects of NSC23925 on sensitive (OVCAR8) and resistant (OVCAR8TR) cells. […] The relative sensitivity of each line to paclitaxel was determined by MTT assay, as described below in the Examples section, 6 days post treatment. […]
as §1, with “After 7 days of culture, 10 μl MTT (5 mg/ml in PBS, obtained from Sigma) were added to each well and the plates were incubated for 4 h.” left out

KHOSR2 cells = test: Reversal of drug resistance, cytotoxicity assay in KHOSR2; type: cell-based, human; settings: anti-cancer drug alone, no NSC23925, read-out: KHOSR2 IC50
[1] = background statement; cited from earlier work

| Compound | IC50 (OVCAR8TR cells; Homo sapiens, 144 h) | IC50 (SKOV-3TR cells; Homo sapiens, SKOV3TR, 144 h) | IC50 (KHOSR2 cells; Homo sapiens) | IC50 (OVCAR8TR cells) | IC50 (SKOV-3TR cells) | IC50 (KHOSR2 cells) | Reported toxicity / side effects at doses used to modify drug resistance [1] |
| --- | --- | --- | --- | --- | --- | --- | --- |
| COc1cccc2c1C(=O)c1c(O)c3c(c(O)c1C2=O)C[C@@](O)(C(=O)CO)C[C@@H]3O[C@H]1C[C@H](N)[C@H](O)[C@H](C)O1 [Doxorubicin, reference compound] | 27.62 ± 0.256 µM | 22.34 ± 0.2 µM | 10.3 ± 0.566 µM |  |  |  |  |
| COc1cc2c(cc1O)CCN[C@]21CS[C@@H]2c3c(OC(C)=O)c(C)c4c(c3[C@H](COC1=O)N1[C@@H]2[C@H]2c3c(cc(C)c(OC)c3O)C[C@@H]([C@@H]1O)N2C)OCO4 [ET-743, reference compound] | 0.006 ± 0.002 µM | 0.004 ± 0.002 µM | 0.175 ± 0.025 µM |  |  |  |  |
| COc1c(C)cc2c(c1O)[C@@H]1[C@@H]3Cc4c(OC(C)=O)c(C)c5c(c4[C@H](CNC(=O)/C=C/c4cccc(C(F)(F)F)c4)N3[C@@H](O)[C@H](C2)N1C)OCO5 [PM00104, reference compound] |  |  |  | 0.008 ± 0.002 µM | 0.006 ± 0.001 µM | 0.143 ± 0.045 µM |  |
| C/C=C/C[C@@H](C)C(=O)[C@H]1C(=O)N[C@@H](C(C)C)C(=O)N(C)CC(=O)N(C)[C@@H](CC(C)C)C(=O)N[C@@H](C(C)C)C(=O)N(C)[C@@H](CC(C)C)C(=O)N[C@@H](C)C(=O)N[C@H](C)C(=O)N(C)[C@@H](CC(C)C)C(=O)N(C)[C@@H](CC(C)C)C(=O)N(C)[C@@H](C(C)C)C(=O)N1C [PSC 833] |  |  |  |  |  |  | cerebellar ataxia and hyperbilirubinemia toxicities |
| CC(=O)O[C@H]1C(=O)[C@@]2(C)[C@H]([C@H](OC(=O)c3ccccc3)[C@]3(O)C[C@H](OC(=O)[C@H](O)[C@@H](NC(=O)c4ccccc4)c4ccccc4)C(C)=C1C3(C)C)[C@]1(OC(C)=O)CO[C@@H]1C[C@@H]2O [Paclitaxel, reference compound] | 0.34 ± 0.032 µM | 0.31 ± 0.021 µM | 0.21 ± 0.023 µM |  |  |  |  |
